“And” between values parts separate entries of the source, which are not always exact repeats. Equal values may be shown once. Where a name gives a salt, the structure may show the parent alone.

Chain of S. aureus GyrB ATPase (P0A0K8 whole entry): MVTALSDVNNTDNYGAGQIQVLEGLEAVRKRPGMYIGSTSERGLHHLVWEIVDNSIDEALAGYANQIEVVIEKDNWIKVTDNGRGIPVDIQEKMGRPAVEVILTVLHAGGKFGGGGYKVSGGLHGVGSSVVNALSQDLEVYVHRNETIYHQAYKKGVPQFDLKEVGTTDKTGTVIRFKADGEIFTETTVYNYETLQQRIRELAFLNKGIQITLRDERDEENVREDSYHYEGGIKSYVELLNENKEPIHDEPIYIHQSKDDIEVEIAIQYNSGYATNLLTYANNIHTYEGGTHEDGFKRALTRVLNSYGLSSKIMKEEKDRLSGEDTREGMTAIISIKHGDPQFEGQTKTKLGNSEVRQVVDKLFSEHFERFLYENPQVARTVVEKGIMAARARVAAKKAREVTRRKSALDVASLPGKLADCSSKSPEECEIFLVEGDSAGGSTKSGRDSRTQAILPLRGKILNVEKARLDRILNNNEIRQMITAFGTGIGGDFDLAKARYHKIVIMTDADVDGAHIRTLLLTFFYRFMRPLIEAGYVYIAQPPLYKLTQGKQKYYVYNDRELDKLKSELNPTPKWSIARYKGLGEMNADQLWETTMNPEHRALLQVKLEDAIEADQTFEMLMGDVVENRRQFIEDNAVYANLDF
Chain of S. aureus GyrB ATPase (P0AES4 whole entry, further chain): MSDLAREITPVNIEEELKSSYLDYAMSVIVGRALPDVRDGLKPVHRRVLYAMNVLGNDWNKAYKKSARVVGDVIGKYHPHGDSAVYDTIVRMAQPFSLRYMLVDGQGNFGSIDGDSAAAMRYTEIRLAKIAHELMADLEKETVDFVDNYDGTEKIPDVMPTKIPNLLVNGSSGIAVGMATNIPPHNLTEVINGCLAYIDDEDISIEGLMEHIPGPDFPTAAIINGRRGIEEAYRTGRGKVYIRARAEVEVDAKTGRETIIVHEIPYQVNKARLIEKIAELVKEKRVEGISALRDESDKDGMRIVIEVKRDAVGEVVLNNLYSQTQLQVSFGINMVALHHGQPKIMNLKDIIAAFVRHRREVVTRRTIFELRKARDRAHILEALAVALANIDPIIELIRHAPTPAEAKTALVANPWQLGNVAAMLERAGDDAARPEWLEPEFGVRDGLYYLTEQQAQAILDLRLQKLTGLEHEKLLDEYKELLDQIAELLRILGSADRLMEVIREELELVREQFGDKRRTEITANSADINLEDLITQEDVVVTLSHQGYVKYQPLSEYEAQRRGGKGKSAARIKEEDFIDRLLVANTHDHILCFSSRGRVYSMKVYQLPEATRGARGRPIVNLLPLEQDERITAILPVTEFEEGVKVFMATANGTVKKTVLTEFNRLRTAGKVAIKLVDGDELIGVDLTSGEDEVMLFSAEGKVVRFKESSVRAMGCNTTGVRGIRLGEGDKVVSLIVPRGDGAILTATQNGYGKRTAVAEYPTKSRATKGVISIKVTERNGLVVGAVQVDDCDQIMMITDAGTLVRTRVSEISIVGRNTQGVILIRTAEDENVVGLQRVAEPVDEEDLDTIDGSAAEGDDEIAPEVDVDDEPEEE

The first test has as its target S. aureus GyrB ATPase (Staphylococcus aureus, UniProt P0A0K8). Description: biochemical. To be noted: compound at 1 μM; one value per test if tested more than once; 1 µM. Put shortly:
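IC50 values derive from 10-point titrations of compound (in DMSO). Phosphate formed from 250 μM ATP was quantified by acidic molybdate/malachite green after quenching.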
On to `CCNC(=O)Nc1cc(-c2nc(C(F)(F)F)cs2)c(-c2ccc3c(c2)c(=O)c(C(=O)O)cn3CC2COCCN2)cn1` (stereo not shown) [Example 294], for which the “% Inhibition of S. aureus GyrB ATPase” value stood at 109%.
On the same count and under the same terms, next, `CCNC(=O)Nc1cc(-c2nc(C(F)(F)F)cs2)c(-c2ccc3c(c2)c(=O)c(C(=O)O)cn3CC2CCN(CCN3CCOCC3)C2)cn1` (stereo not shown) [Example 306, 6-(6-(3-ethylureido)-4-(4-(trifluoromethyl)thiazol-2-yl)pyridin-3-yl)-1-((1-(2-morpholinoethyl)pyrrolidin-3-yl)methyl)-4-oxo-1,4-dihydroquinoline-3-carboxylic acid]: 100% and 102%.

Still in this test, the particulars now being: compound at 1 μM; one value per test if tested more than once; read-out: % Inhibition of S. aureus GyrB ATPase.
In general, inhibition refers to the drop in the measured response relative to a control, in per cent. As to `CCNC(=O)Nc1cc(-c2nc(C(F)(F)F)cs2)c(-c2ccc3c(c2)c(=O)c(C(=O)O)cn3[C@@H]2CCCN(CCO)C2)cn1` [Example 292, (R)-6-(6-(3-ethylureido)-4-(4-(trifluoromethyl)thiazol-2-yl)pyridin-3-yl)-1-(1-(2-hydroxyethyl)piperidin-3-yl)-4-oxo-1,4-dihydroquinoline-3-carboxylic acid], the inhibition at 1 µM worked out at 102%.
Still for that read-out and setting: in the case of `CCNC(=O)Nc1cc(-c2nc(C(F)(F)F)cs2)c(-c2ccc3c(c2)c(=O)c(C(=O)O)cn3CC2COCCN2)cn1` (stereo not shown) [Example 293] it was 106%.
Same read-out and setting: next, `CCNC(=O)Nc1cc(-c2nc(C(F)(F)F)cs2)c(-c2ccc3c(c2)c(=O)c(C(=O)O)cn3CC2CCN(CC)C2)cn1` (stereo not shown) [Example 305, 1-((1-ethylpyrrolidin-3-yl)methyl)-6-(6-(3-ethylureido)-4-(4-(trifluoromethyl)thiazol-2-yl)pyridin-3-yl)-4-oxo-1,4-dihydroquinoline-3-carboxylic acid]: 103%; `CCNC(=O)Nc1cc(-c2nc(C(F)(F)F)cs2)c(-c2ccc3c(c2)c(=O)c(C(=O)O)cn3CC2CCN(CCN3CCOCC3)C2)cn1` (stereo not shown) [Example 306, 6-(6-(3-ethylureido)-4-(4-(trifluoromethyl)thiazol-2-yl)pyridin-3-yl)-1-((1-(2-morpholinoethyl)pyrrolidin-3-yl)methyl)-4-oxo-1,4-dihydroquinoline-3-carboxylic acid]: 105%.
On the same count and under the same terms, next, `CCNC(=O)Nc1cc(-c2nc(C(F)(F)F)cs2)c(-c2ccc3c(c2)c(=O)c(C(=O)O)cn3CC2CCN(CC3CCCO3)C2)cn1` (stereo not shown) [Example 307, 6-(6-(3-ethylureido)-4-(4-(trifluoromethyl)thiazol-2-yl)pyridin-3-yl)-4-oxo-1-((1-((tetrahydrofuran-2-yl)methyl)pyrrolidin-3-yl)methyl)-1,4-dihydroquinoline-3-carboxylic acid]: 105%; `CCNC(=O)Nc1cc(-c2nc(C(F)(F)F)cs2)c(-c2ccc3c(c2)c(=O)c(C(=O)O)cn3CC2CCN(CCO)C2)cn1` (stereo not shown) [Example 308, 6-(6-(3-ethylureido)-4-(4-(trifluoromethyl)thiazol-2-yl)pyridin-3-yl)-1-((1-(2-hydroxyethyl)pyrrolidin-3-yl)methyl)-4-oxo-1,4-dihydroquinoline-3-carboxylic acid hydrochloride]: 111%.
Turning to `CCNC(=O)Nc1cc(-c2nc(C(F)(F)F)cs2)c(-c2ccc3c(c2)c(=O)c(C(=O)O)cn3C2CCCN(Cc3ccncc3)C2)cn1` (stereo not shown) [Example 309, 6-(6-(3-ethylureido)-4-(4-(trifluoromethyl)thiazol-2-yl)pyridin-3-yl)-4-oxo-1-(1-(pyridin-4-ylmethyl)piperidin-3-yl)-1,4-dihydroquinoline-3-carboxylic acid], the inhibition at 1 µM worked out at 109%.
Still for that read-out and setting: in the case of `CCNC(=O)Nc1cc(-c2nc(C(F)(F)F)cs2)c(-c2ccc3c(c2)c(=O)c(C(=O)O)cn3C2CCCN(C)C2)cn1` (stereo not shown) [Example 311, 6-(6-(3-ethylureido)-4-(4-(trifluoromethyl)thiazol-2-yl)pyridin-3-yl)-1-(1-methylpiperidin-3-yl)-4-oxo-1,4-dihydroquinoline-3-carboxylic acid] it was 100%; in that of `CCNC(=O)Nc1cc(-c2nc(C(F)(F)F)cs2)c(-c2ccc3c(c2)c(=O)c(C(=O)O)cn3[C@H]2CCN(C)C2)cn1` [Example 312, (S)-6-(6-(3-ethylureido)-4-(4-(trifluoromethyl)thiazol-2-yl)pyridin-3-yl)-1-(1-methylpyrrolidin-3-yl)-4-oxo-1,4-dihydroquinoline-3-carboxylic acid], 105%; in that of `CCNC(=O)Nc1cc(-c2nc(C(F)(F)F)cs2)c(-c2ccc3c(c2)c(=O)c(C(=O)O)cn3CC2CCCN(C)C2)cn1` (stereo not shown) [Example 313, 6-(6-(3-ethylureido)-4-(4-(trifluoromethyl)thiazol-2-yl)pyridin-3-yl)-1-((1-methylpiperidin-3-yl)methyl)-4-oxo-1,4-dihydroquinoline-3-carboxylic acid], 103%.
On the same count and under the same terms, next, `CCNC(=O)Nc1cc(-c2nc(C(F)(F)F)cs2)c(-c2ccc3c(c2)c(=O)c(C(=O)O)cn3[C@H]2CCCC[C@@H]2N)cn1` [Example 314, 1-((1S,2S)-2-aminocyclohexyl)-6-(6-(3-ethylureido)-4-(4-(trifluoromethyl)thiazol-2-yl)pyridin-3-yl)-4-oxo-1,4-dihydroquinoline-3-carboxylic acid]: 114%; `CCNC(=O)Nc1cc(-c2nc(C(F)(F)F)cs2)c(-c2ccc3c(c2)c(=O)c(C(=O)O)cn3CCCO)cn1` [Example 320, 6-(6-(3-Ethylureido)-4-(4-(trifluoromethyl)thiazol-2-yl)pyridin-3-yl)-1-(3-hydroxy-propyl)-4-oxo-1,4-dihydro-quinoline-3-carboxylic acid]: 98%; `CCNC(=O)Nc1cc(-c2nc(C(F)(F)F)cs2)c(-c2ccc3c(c2)c(=O)c(C(=O)O)cn3C2CCOCC2)cn1` [Example 321, 6-(6-(3-Ethylureido)-4-(4-(trifluoromethyl)thiazol-2-yl)-pyridin-3-yl)-4-oxo-1-(tetrahydro-2H-pyran-4-yl)-1,4dihydroquinoline-3-carboxylic acid]: 100%.
Same read-out and setting: in the case of `CCNC(=O)Nc1cc(-c2nc(C(F)(F)F)cs2)c(-c2ccc3c(c2)c(=O)c(C(=O)O)cn3C2CCCCC2)cn1` [Example 322, 1-Cyclohexyl-6-(6-(3-ethylureido)-4-(4-(trifluoro-methyl)thiazol-2-yl)pyridin-3-yl)-4-oxo-1,4-dihydroquinoline-3-carboxylic acid] it was 96%; in that of `CCNC(=O)Nc1cc(-c2nc(C(F)(F)F)cs2)c(-c2ccc3c(c2)c(=O)c(C(=O)O)cn3C2CCN(C)CC2)cn1` [Example 323, 6-(6-(3-Ethylureido)-4-(4-(trifluoromethyl)thiazol-2-yl)pyridin-3-yl)-1-(1-methyl-piperidin-4-yl)-4-oxo-1,4-dihydro-quinoline-3-carboxylic acid], 106%; in that of `CCNC(=O)Nc1cc(-c2nc(C(F)(F)F)cs2)c(-c2ccc3c(c2)c(=O)c(C(=O)NCCOC)cn3C2CC2)cn1` [Example 325, 1-Cyclopropyl-6-(6-(3-ethylureido)-4-(4-(trifluoromethyl)thiazol-2-yl)pyridin-3-yl)-N-(2-methoxyethyl)-4-oxo-1,4-dihydroquinoline-3-carboxamide], 96%.
On to `CCNC(=O)Nc1cc(-c2nc(C(F)(F)F)cs2)c(-c2ccc3c(c2)c(=O)c(C(=O)NC2CC2)cn3C2CC2)cn1` [Example 326, N,1-Dicyclopropyl-6-(6-(3-ethylureido)-4-(4-(trifluoromethyl)thiazol-2-yl)pyridin-3-yl)-4-oxo-1,4-dihydroquino-line-3-carboxamide], for which the inhibition at 1 µM amounted to 97%.
